According to ChEMBL document CHEMBL5356995, “Aurones and derivatives as promising New Delhi metallo-β-lactamase (NDM-1) inhibitors” (Bioorg Med Chem, 2024):
One block for each compound: values may come before it.

Key:
Bacteria [1] = experiment: Inhibition of bacterial VIM-2 assessed as substrate hydrolysis at 100 uM using imipenem as substrate by spectrophotometric analysis relative to control
Klebsiella pneumoniae = experiment: Potentiation of meropenem induced antibacterial activity against blaNDM-1 producing Klebsiella pneumoniae SI-518 assessed as reduction in meropenem MIC at 32 ug/ml (reference value: 128 ug/ml); assay type: functional; conditions: dose 32 µg/ml
Escherichia coli [2] = experiment: Potentiation of meropenem induced antibacterial activity against blaNDM-4 producing Escherichia coli SI-G001 assessed as reduction in meropenem MIC at 32 ug/ml (reference value: 128 ug/ml); assay type: functional; conditions: dose 32 µg/ml
Escherichia coli [3] = experiment: Potentiation of meropenem induced antibacterial activity against blaNDM-1 producing Escherichia coli SI-004M assessed as reduction in meropenem MIC at 32 ug/ml (reference value: 64 ug/ml); assay type: functional; conditions: dose 32 µg/ml
Bacteria [4] = experiment: Inhibition of bacterial IMP-1 assessed as substrate hydrolysis at 100 uM using imipenem as substrate by spectrophotometric analysis relative to control
[5] = target: Metallo-beta-lactamase type 2 (Bacteria) (UniProt C7C422); experiment: Inhibition of bacterial NDM-1 assessed as substrate hydrolysis at 100 uM using imipenem as substrate by spectrophotometric analysis relative to control
[6] = target: Metallo-beta-lactamase type 2 (Bacteria, UniProt C7C422); experiment: Inhibition of bacterial NDM-1
Chain of Metallo-beta-lactamase type 2 (C7C422 whole entry): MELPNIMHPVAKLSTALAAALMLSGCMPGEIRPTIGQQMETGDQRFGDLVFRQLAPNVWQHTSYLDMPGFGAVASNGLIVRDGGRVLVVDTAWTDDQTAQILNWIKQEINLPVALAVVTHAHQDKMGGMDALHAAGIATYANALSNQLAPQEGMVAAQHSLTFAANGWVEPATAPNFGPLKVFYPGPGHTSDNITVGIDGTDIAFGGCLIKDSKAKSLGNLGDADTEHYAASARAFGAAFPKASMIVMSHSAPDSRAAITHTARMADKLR

Chain of Metallo-beta-lactamase type 2 (Bacteria) (C7C422 whole entry): as above

inhibition (Bacteria [1]): 96%
MIC (Klebsiella pneumoniae): ≤ 0.5 µg/mL
MIC (Escherichia coli [2]): ≤ 0.5 µg/mL
MIC (Escherichia coli [3]): ≤ 0.5 µg/mL
inhibition (Bacteria [4]): 40%
inhibition [5]: 97%
Compound: O=C(O)[C@H](CCCn1c(-c2ccccc2)n[nH]c1=S)N(Cc1c[nH]cn1)Cc1c[nH]cn1

Ki [6]: 5.1 µM
Compound: O=C(O)CN1CCN(CC(=O)O)CCN(CC(=O)O)CC1

Ki [6]: 4.1 µM
Compound: O=C1/C(=C/c2ccc(O)c(O)c2)Cc2cc(O)cc(O)c21

Ki [6]: 0.011 µM
Compound: N[C@@H](CN[C@@H](CN[C@@H](CC(O)O)C(=O)O)C(=O)O)C(=O)O
